Test results published in patent publication US20120197059A1, “UBIQUITIN INTERACTING MOTIF PEPTIDES AS CANCER THERAPEUTICS” (priority 2011, published 2012).

Experiments:
[1] = in vivo; cited from earlier work
[2] = free acid; cited from earlier work
[3] = test system: VEGFR-2; experiment: VEGF signaling assay with Dynasore, western blotting; type: cell-based, human; conditions: HUVEC, 40 or 80 μM Dynasore, VEGF-A 50 ng/ml
[4] = cited from earlier work
[5] = test system: gliomas; conditions: given before, at the time of or after tumor implantation; cited from earlier work
[6] = test system: DKO MECs; experiment: BrdU labeling of mouse endothelial cells; type: cell-based
Procedure: BrdU labeling. BrdU labeling of Mouse Endothelial Cells. WT and DKO MECs were grown in a 48-well plate until they reached 50% percent confluency. Cells were starved overnight and stimulated with growth factors or growth factors plus inhibitors for 6 h. BrdU labeling and detection kit (Roche) was then used to label the proliferating cells. Briefly, cells were incubated with BrdU labeling medium (1:500 diluted in medium) for 3 h. Cells were washed three times with wash buffer and fixed with ethanol for 20 min at −20° C. followed by washing the cells three times with wash buffer and incubated with 6M HCl/0.1% Triton for 30 minutes at room temperature. This was followed by six washes with PBS/0.1% Triton. Cells were blocked with PBS/0.3% Triton/3% BSA/3% donkey serum for 30 min at room temperature followed by incubation with anti-BrdU working solution for 30 minutes at 37° C. After three washes with wash buffer cells were again incubated with donkey anti-mouse Ig-fluorescein for 30 minutes at 37° C. After washing the cells three times with wash buffer they were stained with DAPI and visualized using Olympus Fluorescent microscope. Percentage of proliferating cells was calculated based on the ratio of BrdU-positive cells versus DAPI-positive cells.

[7] = test system: retina angiogenesis; experiment: Retinal angiogenic sprouting in EC-iDKO P6 pups, isolectin B4 staining; type: in vivo, mice; conditions: IP/intraocular injection
Procedure: Immunohistochemistry and immunofluorescence of tissue samples. Immunohistochemistry and immunofluorescence were performed as described with modifications (Chen et al., 1998; Chen et al., 2009). • E9/10 Hind Brain: Embryos were harvested at E9 or E10 and fixed. Hindbrain was harvested and processed for staining with anti-CD31 and donkey anti-rat Alex Fluor 488 secondary antibody. • P6 Skin: Wild-type or EC-iDKO pups were injected intraperitoneally with 5 mg/kg (body weight) of 4-hydroxytamoxifen (10 mg/ml of 4-Hydroxytamoxifen resuspended in 10% of ethanol and 90% of DMSO) per day from postnatal day 1 (P1) to P3. Pups were euthanized at P6 and skin from abdomen was harvested and processed for whole mount staining with anti-CD31 and donkey anti-rat Alexa Fluor 488 secondary antibody. • P6 Retina: Wild-type or EC-iDKO Pups were injected with 4-hydroxytamoxifen as described above per day from postnatal day 2 (P2) to P4. P6 pups were euthanized and whole eyes harvested. […]
Receptor tyrosine kinase inhibitors injection. […] For western blot analysis, skin and heart tissues were collected from WT P6 pups injected either with DMSO or inhibitors and analyzed for phospho-Akt and total Akt.

Compound: CC(C)(C)[N+]([O-])=Cc1ccc(S(=O)(=O)O)cc1S(=O)(=O)O [2,4-ds PBN, 2,4-disulfonyl phenyl-tert-butyl nitrone]
- efficacy as compared to PBN [1]: unexpected increase
- potency as compared to PBN [1]: increase in potency
- toxicity as compared to PBN [1]: marked and highly significant decrease
- solubility in water [2]: greater than 1 gram/ml

Compound: O=C(N/N=C/c1ccc(O)c(O)c1)c1cc2ccccc2cc1O [Dynasore]
- total levels of VEGFR-2 and phosphorylation of VEGFR-2 and its downstream signaling effectors [3]: dramatically increased

Compound: CC(C)(C)[N+]([O-])=Cc1ccccc1 [PBN, phenyl N-tert-butyl nitrone]
- tissue distribution ([4]; rat, in vivo): readily and rapidly distributed almost equally to all tissues
- half-life ([4]; rats): about 132 minutes
- glioma tumor development [5]: able to control tumor development

Compound: CC(C)c1cc(/C=C(\C#N)C(=O)NCCCc2ccccc2)cc(C(C)C)c1O [inhibitors to VEGFR-2]
- VEGF-increased proliferation of DKO MECs [6]: abrogated
- elevated angiogenic sprouting in EC-iDKO retina [7]: reversed
